Data from PubChem BioAssay (NCI).
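1) Cells in 96-well plates. 2) Compound, 48 h, 5 concentrations. 3) Linear interpolation between surrounding doses. 4) Unreached endpoint = highest concentration. Here, GI50 denotes the concentration required for 50% inhibition of growth. The concentration for full growth arrest is given as TGI.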

Columns and labels:
Assay in all cases: DTP human tumour cell line panel, 48 h
SK-MEL-5 melanoma = test system: SK-MEL-5 melanoma
CAKI-1 renal = test system: CAKI-1 renal
SK-OV-3 ovarian = test system: SK-OV-3 ovarian
UACC-62 melanoma = test system: UACC-62 melanoma
HCT-116 colon = test system: HCT-116 colon
OVCAR-3 ovarian = test system: OVCAR-3 ovarian
KM12 colon = test system: KM12 colon
SR leukemia = test system: SR leukemia
RXF 393 renal = test system: RXF 393 renal
MDA-MB-435 = test system: MDA-MB-435

Compound | TGI (SK-MEL-5 melanoma) | TGI (CAKI-1 renal) | TGI (SK-OV-3 ovarian) | TGI (UACC-62 melanoma) | TGI (HCT-116 colon) | TGI (OVCAR-3 ovarian) | TGI (KM12 colon) | TGI (SR leukemia) | TGI (RXF 393 renal) | GI50 (SK-MEL-5 melanoma) | GI50 (SK-OV-3 ovarian) | GI50 (MDA-MB-435) | TGI (MDA-MB-435) | GI50 (UACC-62 melanoma) | GI50 (HCT-116 colon) | GI50 (OVCAR-3 ovarian) | GI50 (KM12 colon) | GI50 (RXF 393 renal) | GI50 (CAKI-1 renal) | GI50 (SR leukemia)
CN(C)CC/C(=N\Nc1ccccc1)c1ccccc1 | 35.6 µM | 11.2 µM | 34.7 µM | > 100 µM | 34.4 µM | 27.7 µM | 18.3 µM | > 100 µM | > 100 µM | – | – | – | – | – | – | – | – | – | – | –
COc1ccc2c(c1)OC1=C(C(=O)OC1)C2c1cc(OC)c(OC)c(OC)c1 (configuration not stated) | 61.2 µM | – | > 49.5 µM | > 100 µM | > 100 µM | 1.14 µM | > 89.6 µM | – | 0.735 µM | 0.363 µM | 0.392 µM | 0.104 µM | 0.358 µM | 0.55 µM | 0.535 µM | 0.313 µM | 0.396 µM | 0.231 µM | – | –
CCc1nc(N)nc(C(=O)NCCNC(=O)c2nc(N)nc(CC)c2C)c1C | > 100 µM | > 100 µM | – | > 100 µM | > 100 µM | > 100 µM | > 100 µM | – | > 100 µM | – | – | – | – | – | – | – | – | – | – | –
CSc1nc(NC(=O)O)c(N(C(C)=O)C(=O)O)c(=O)n1C | > 100 µM | > 100 µM | – | > 100 µM | > 100 µM | > 100 µM | > 100 µM | – | > 100 µM | – | – | – | – | – | – | – | – | – | – | –
CCn1c(O)c(C=N)c(=O)n(CC)c1=O | > 100 µM | > 100 µM | > 100 µM | > 100 µM | > 100 µM | > 100 µM | > 100 µM | – | > 100 µM | – | – | – | – | – | – | – | – | – | – | –
O=C1NC2CCC(C2)C1c1ccccc1 (configuration not stated) | > 100 µM | – | > 100 µM | > 100 µM | – | > 100 µM | > 100 µM | > 100 µM | > 100 µM | – | – | – | – | – | – | – | – | – | – | –
O=C(Nc1ccc(F)cc1)C(=O)C(C1OC(=O)c2ccccc21)[N+](=O)[O-] (configuration not stated) | > 100 µM | > 100 µM | > 100 µM | > 100 µM | > 100 µM | > 100 µM | > 100 µM | > 100 µM | > 100 µM | – | – | – | – | – | – | – | – | – | – | –
COC1OC(C)C(O)CC1OS(=O)(=O)c1ccc(C)cc1 (configuration not stated) | > 100 µM | > 100 µM | > 100 µM | > 100 µM | > 100 µM | > 100 µM | > 100 µM | – | > 100 µM | – | – | – | – | – | – | – | – | – | – | –
CC(=O)N/C(=C\c1cccc([N+](=O)[O-])c1)c1nc2c3c(ccc2[nH]1)C(=O)c1ccccc1C3=O | > 100 µM | > 100 µM | > 100 µM | > 100 µM | > 100 µM | > 100 µM | > 100 µM | > 100 µM | > 100 µM | – | – | – | – | – | – | – | – | – | – | –
COC(=O)C12C3C4C5C3(C#N)C1C5(C(=O)OC)C42C(=O)N(C(C)C)C(C)C (configuration not stated) | > 100 µM | > 100 µM | > 100 µM | > 100 µM | > 100 µM | > 100 µM | > 100 µM | 33.3 µM | > 100 µM | – | – | – | – | – | – | – | – | – | – | –
COC(=O)C(=O)C(C#N)c1ccc(CC#N)cc1 (configuration not stated) | – | > 100 µM | > 100 µM | > 100 µM | > 100 µM | > 100 µM | > 100 µM | > 100 µM | – | – | – | – | – | – | – | – | – | – | – | –
CC/C(=C(/CC)c1ccc(O)cc1)c1ccc([O-])cc1.CC/C(=C(/CC)c1ccc(O)cc1)c1ccc([O-])cc1.O=C([CH-]C(=O)c1ccccc1)c1ccccc1.O=C([CH-]C(=O)c1ccccc1)c1ccccc1.[Ti+4] | – | 61 µM | 52.2 µM | 25.5 µM | 17.3 µM | > 100 µM | 35.1 µM | > 100 µM | 25.7 µM | – | 19.8 µM | – | – | 6.61 µM | 5.22 µM | 27.7 µM | 12.5 µM | 10.7 µM | 16.3 µM | 9.89 µM
Cc1cc(C)nc(NS(=O)(=O)c2ccc(Nc3c4ccc(Cl)cc4nc4c(C(=O)Nc5ccc(S(=O)(=O)N=C(N)N)cc5)cccc34)cc2)n1 | – | – | > 100 µM | > 100 µM | > 100 µM | > 100 µM | > 100 µM | – | > 100 µM | – | – | – | – | – | – | – | – | – | – | –
O=c1[nH]c2c3ccccc3ccc2c2cc3c(cc12)OCO3 | > 100 µM | > 100 µM | > 100 µM | > 100 µM | > 100 µM | > 100 µM | > 100 µM | – | > 100 µM | – | – | – | – | – | – | – | – | – | – | –
O=C(O)CC12C3C4C5C3C1C5C42 (configuration not stated) | > 100 µM | > 100 µM | > 100 µM | > 100 µM | > 100 µM | > 100 µM | > 100 µM | – | – | – | – | – | – | – | – | – | – | – | – | –
CCCCc1ccc(-n2c3nc(=O)n(C)c(=O)c-3nc3ccccc32)cc1 | 3.01 µM | 54.5 µM | > 100 µM | 4 µM | 25.6 µM | 10.1 µM | 26.6 µM | – | 34.1 µM | – | – | – | – | – | – | – | – | – | – | –
Cc1ccc(-c2nc(N)nc3c2nnn3Cc2cccc(CO[C@H]3CCOC3)n2)o1 | > 100 µM | > 100 µM | > 100 µM | > 100 µM | > 100 µM | > 100 µM | > 100 µM | – | > 100 µM | 53.6 µM | > 100 µM | > 100 µM | > 100 µM | > 100 µM | > 100 µM | > 100 µM | > 100 µM | > 100 µM | > 100 µM | –
Cc1ccc(NC(=O)CCC/C(CC(=O)c2ccc(Br)cc2)=N/NC(=O)CC#N)cc1 | > 100 µM | – | – | > 100 µM | > 100 µM | > 100 µM | > 100 µM | – | > 100 µM | – | – | – | – | – | – | – | – | – | – | –
C1CCN(C2OC3C(COC3N3CCCCC3)OC2OC2CCO[C@@H]2N2CCCCC2)CC1 (some centres not stated) | > 100 µM | > 100 µM | > 100 µM | 41.8 µM | > 100 µM | 89.3 µM | > 100 µM | – | 27.5 µM | – | – | – | – | – | – | – | – | – | – | –
CC(C)C1CCC/C=C/C=C/C=C/C=C/C(OC2OC(C)C(O)C(N)C2O)CC2OC(O)(CC(O)CC(O)C(O)CCC(=O)O1)CC(O)C2C(=O)O (configuration not stated) | > 52.5 µM | > 52.5 µM | > 52.5 µM | > 52.5 µM | > 52.5 µM | > 52.5 µM | – | > 52.5 µM | – | – | – | – | – | – | – | – | – | – | – | –
COc1ccc2cc3[n+](cc2c1OC)CCc1cc(O)c(O)cc1-3 | > 100 µM | > 100 µM | > 100 µM | > 100 µM | > 100 µM | > 100 µM | > 100 µM | – | > 100 µM | – | – | – | – | – | – | – | – | – | – | –
CCOC(=O)C1=C(Nc2ccc(Cl)cc2Cl)OC/C1=N\NS(=O)(=O)c1ccc(C)cc1 | > 100 µM | > 100 µM | > 100 µM | > 100 µM | > 100 µM | > 100 µM | > 100 µM | > 100 µM | > 100 µM | – | – | – | – | – | – | – | – | – | – | –
